Source: US20020058701A1 (priority 2000, published 2002)

How the values were obtained:
[1] = Body weights and food consumption in diabetic db/db mice; assay type: in vivo; details: for Food Intake (g/mouse) 0-24 h: vehicle 6.8; for Body weight (g/mouse) (mean) 24 hr: vehicle 37.8 ± 0.8
Protocol: (§1) Genetically altered obese diabetic mice (designated C57BL/ks diabetic or db/db) were purchased from the Jackson Laboratory (Bar Harbor, Me., USA), and served as experimental animals. Male animals between the ages of 8-9 weeks were employed in the studies described here. Animals were housed (4 mice/cage) under standard laboratory conditions at 22° C. and 50% relative humidity, and were maintained on a diet of Purina rodent chow and water ad libitum. Prior to treatment, blood was collected from the tail vein of each animal. Mice that had plasma glucose levels between 350 and 600 mg/dL were used. Each treatment group consisted of eight mice that were distributed so that the mean glucose levels were equivalent in each group at the start of the study. Db/db mice received, orally by gavage: the experimental compound administered at 62.5, 125, or 250 mg/kg/day (unless otherwise noted), or metformin administered at […] for 1-3 days. Test compounds were delivered in a liquid vehicle containing 0.25% (w/v) carboxymethyl-cellulose, 1% (v/v) Tween […] (polyoxyethylene sorbitan monosterate), and up to 10% (v/v) dimethyl sulfoxide (DMSO) in a volume of 10 ml/kg. Blood was sampled from the tail vein at three hours, six, eight, twenty-four, and thirty hours post-administration (the first administration) of the particular compound in non-fasted conditions. Experiments 3-5 also sampled blood at fifty-four hours post-administration (the first administration) of the particular compound in non-fasted conditions. Blood samples were analyzed for plasma glucose levels. Individual body weights and mean food consumption (each cage) were also measured daily.

[2] = tested on: C57BL/ks diabetic (db/db) mice; experiment: Glucose-lowering (plasma glucose) in diabetic db/db mice; assay type: in vivo; details: for Change in Glucose (mg/dL) 6 H / Change in Glucose (mg/dL) 6 h: 6 h after initial dose; for Change in Glucose (mg/dL) 54 H: 54 h after initial dose; for Change in Glucose (mg/dL) 3 h: 3 h after initial dose, vehicle −8.0; for Change in Glucose (mg/dL) 3 h / Change in Glucose (mg/dL) 6 h: Table 1; for Change in Glucose (mg/dL) 6 h: vehicle 64.5; for Change in Glucose (mg/dL) 8 h: 8 h after initial dose, vehicle 79.5; for Change in Glucose (mg/dL) 24 h: 24 h after initial dose, vehicle 18.6; for reduction in plasma glucose relative to vehicle (control) (in words): oral
Protocol: as §1
The isolated test substances were prepared as described previously (vide supra). Metformin (1,1-dimethylbiguanide), carboxymethyl cellulose and Tween 60 were purchased from Sigma Chemical Co. (St. Louis, Mo., USA; catalog #'s D-5035, C-4888, and p-1629, respectively). Plasma glucose levels were determined colorimetrically using glucose oxidase (Sigma Chemical Co.; Sigma catalog #315). Significant differences between groups (comparing compound-treated to vehicle-treated) were evaluated using analysis of variance and Fisher's post-hoc test.
Vehicle, metformin (250 mg/kg) or enriched extract (1000 mg/kg) were given to db/db mice at 0(initial), 8, 24, 32, 48, 56, 72, 80, and 96 hours post initial dose.
Plasma glucose levels were measured at baseline, 3 (day 1), 51 hours (Day 3), and 99 hours (Day 5).

[3] = 250 mg/kg, vehicle 38.0 ± 0.8, Table 3
[4] = 250 mg/kg oral, dosed at 0, 8 and 24 h
[5] = 250 mg/kg oral, dosed at 0, 8 and 24 h, Table 2
[6] = 125 mg/kg, vehicle 6.0, Table 9
[7] = 125 mg/kg, vehicle 39.8 ± 0.7, Table 9
[8] = 125 mg/kg, vehicle 39.7 ± 0.6, Table 9
[9] = 125 mg/kg q.d. oral at 0, 24, 48 h, vehicle 15.5, Table 8
[10] = 125 mg/kg q.d. oral at 0, 24, 48 h, 30 h after initial dose, vehicle 56.6, Table 8
[11] = 125 mg/kg q.d. oral at 0, 24, 48 h, vehicle 88.6, Table 8
[12] = Table 8, printed dose 250 mg/kg, thirty hours after initial dosing, value = size of decline
[13] = dose level of 125 mg/kg, Tables 8 and 10

In the case of `COc1cc(/C=C/c2ccccc2)c(C(=O)O)c(O)c1CC=C(C)C` [Compound C, 3-hydroxy-4-(3-methyl-2-butenyl)-5-methoxystilbene-2-carboxylic acid], the “adverse effect on food intake or body weight (in words)” value (“adverse effect” for short) ([1]; 62.5 mg/kg, 125 mg/kg, and 250 mg/kg, Tables 5 and 7) is reported as “absence of any significantly adverse effect”, the “Food Intake (g/mouse) 0-48 h” value ([1]; 62.5 mg/kg, vehicle 6.3, Tables 5 and 7) is reported as 5.9 g/mouse and the “Body weight (g/mouse) (mean) 0 h” value ([1]; 62.5 mg/kg, vehicle 39.2 ± 0.5, Tables 5 and 7) is reported as 37.4 ± 0.4 g/mouse. The “Body weight (g/mouse) (mean) 48 hr” value ([1]; 62.5 mg/kg, vehicle 39.5 ± 0.5, Tables 5 and 7) was 38.2 ± 0.5 g/mouse, the “Food Intake (g/mouse) 0-48 h” value ([1]; 125 mg/kg, vehicle 6.3, Tables 5 and 7) was 5.6 g/mouse and the “Body weight (g/mouse) (mean) 0 h” value ([1]; 125 mg/kg, vehicle 39.2 ± 0.5, Tables 5 and 7) was 39.4 ± 0.4 g/mouse. For the same molecule, the “Body weight (g/mouse) (mean) 48 hr” value ([1]; 125 mg/kg, vehicle 39.5 ± 0.5, Tables 5 and 7) was 39.7 ± 0.3 g/mouse, the “food intake compared with the normal food intake range (5-6 g/day/mouse) (in words)” value ([1]; 250 mg/kg) was “less than that of the normal food intake range” and the “Food Intake (g/mouse) 0-24 h” value ([1]; 250 mg/kg, Table 3) was 3.3 g/mouse. For the same molecule, the “Food Intake (g/mouse) 0-48 h” value ([1]; 250 mg/kg, vehicle 6.3, Tables 5 and 7) was 4.3 g/mouse, the “Body weight (g/mouse) (mean) 0 h” value [1, 3] was 38.7 ± 0.8 g/mouse and the “Body weight (g/mouse) (mean) 0 h” value ([1]; 250 mg/kg, vehicle 39.2 ± 0.5, Tables 5 and 7) was 39.1 ± 0.8 g/mouse. For the same molecule, the “Body weight (g/mouse) (mean) 24 hr” value ([1]; 250 mg/kg, Table 3) was 38.0 ± 0.7 g/mouse, the “Body weight (g/mouse) (mean) 48 hr” value ([1]; 250 mg/kg, vehicle 39.5 ± 0.5, Tables 5 and 7) was 38.4 ± 0.1 g/mouse and the “adverse effect” value ([1]; 250 mg/kg, Table 3) was “absence of any significantly adverse effect”. For the same molecule, the “Change in Glucose (mg/dL) 6 H” value ([2]; 62.5 mg/kg q.d. oral at 0, 24, 48 h, vehicle 35.9, Tables 4 and 6 (dose of row)) was -18.6 mg/dL, the “Change in Glucose (mg/dL) 30 H” value ([2]; 62.5 mg/kg q.d. oral at 0, 24, 48 h, 30 h after initial dose, vehicle 79.6, Tables 4 and 6) was -40.7 mg/dL and the “Change in Glucose (mg/dL) 54 H” value ([2]; 62.5 mg/kg q.d. oral at 0, 24, 48 h, vehicle 60.3, Tables 4 and 6) was 65.4 mg/dL. The “Change in Glucose (mg/dL) 6 H” value ([2]; 125 mg/kg q.d. oral at 0, 24, 48 h, vehicle 35.9, Tables 4 and 6 (dose of row)) was -34.3 mg/dL, the “Change in Glucose (mg/dL) 30 H” value ([2]; 125 mg/kg q.d. oral at 0, 24, 48 h, 30 h after initial dose, vehicle 79.6, Tables 4 and 6) was -69.7 mg/dL and the “Change in Glucose (mg/dL) 54 H” value ([2]; 125 mg/kg q.d. oral at 0, 24, 48 h, vehicle 60.3, Tables 4 and 6) was -60.4 mg/dL. For the same molecule, the “Change in Glucose (mg/dL) 3 h” value [2, 4] was -10.4 mg/dL, the “Change in Glucose (mg/dL) 6 h” value [2, 4] was -8.4 mg/dL and the “Change in Glucose (mg/dL) 8 h” value [2, 5] was “+4.5 mg/dL”. The “Change in Glucose (mg/dL) 24 h” value [2, 5] was -122.8 mg/dL, the “Change in Glucose (mg/dL) 6 H” value ([2]; 250 mg/kg q.d. oral at 0, 24, 48 h, vehicle 35.9, Tables 4 and 6) was -120.8 mg/dL and the “Change in Glucose (mg/dL) 30 H” value ([2]; 250 mg/kg q.d. oral at 0, 24, 48 h, 30 h after initial dose, vehicle 79.6, Tables 4 and 6) was -221.4 mg/dL. The “Change in Glucose (mg/dL) 54 H” value ([2]; 250 mg/kg q.d. oral at 0, 24, 48 h, vehicle 60.3, Tables 4 and 6) was -122.0 mg/dL, the “mean glucose levels declined from the baseline value” ([2]; Table 8, 125 mg/kg, thirty hours after initial dosing, value = size of decline) was 12.2 mg/dL and the “mean glucose levels rose from the baseline values” ([2]; Tables 1-2, 250 mg/kg, eight hours after initial dosing, value = size of rise) was 4.5 mg/dL. For the same molecule, the “mean glucose levels declined from the baseline value” ([2]; Tables 1-2, 250 mg/kg, six hours after initial dosing, value = size of decline) was 8.4 mg/dL, the “mean glucose levels rose from the baseline value” ([2]; Tables 1-2, 250 mg/kg, thirty hours after dosing, value = size of rise) was 36.5 mg/dL and the “mean glucose levels declined from the baseline values” ([2]; Tables 1-2, 250 mg/kg, twenty-four hours after initial dosing, value = size of decline) was 122.8 mg/dL. For the same molecule, the “mean glucose levels declined from the baseline value” ([2]; Tables 4 and 6, 125 mg/kg, six hours after initial dosing, value = size of decline) was 34.3 mg/dL, the “reduction in plasma glucose relative to vehicle (control) (in words)” value ([2]; dose level of 250 mg/kg, Tables 1 and 2) was “statistically significant reduction” and the “reduction in plasma glucose relative to vehicle (control) (in words)” value ([2]; dose levels of 62.5, 125, and 250 mg/kg, Tables 4 and 6) was “statistically significant reduction”.

With `COc1cc(O)cc(/C=C/c2ccccc2)c1` [Compound B, 3-hydroxy-5-methoxystilbene] the “Food Intake (g/mouse) 0-24 h” value ([1]; 250 mg/kg, Table 3) was 5.9 g/mouse, the “Body weight (g/mouse) (mean) 0 h” value [1, 3] was 37.8 ± 0.4 g/mouse and the “Body weight (g/mouse) (mean) 24 hr” value ([1]; 250 mg/kg, Table 3) was 37.8 ± 0.4 g/mouse. For the same molecule, the “Change in Glucose (mg/dL) 3 h” value [2, 4] was -35.3 mg/dL, the “Change in Glucose (mg/dL) 6 h” value [2, 4] was “+29.3 mg/dL” and the “Change in Glucose (mg/dL) 8 h” value [2, 5] was “+52.2 mg/dL”. For the same molecule, the “Change in Glucose (mg/dL) 24 h” value [2, 5] was -50.6 mg/dL and the “Change in Glucose (mg/dL) 30 h” value ([2]; 250 mg/kg oral, dosed at 0, 8 and 24 h, 30 h after initial dose, Table 2) was “+36.5 mg/dL”.

With `COc1cc(O)cc(CCc2ccccc2)c1CC=C(C)C` [Compound E] the “Food Intake (g/mouse) 0-48 h” value [1, 6] was 5.7 g/mouse, the “Food Intake (g/mouse) 0-48 h” value ([1]; 125 mg/kg, vehicle 6.1, Table 11) was 5.7 g/mouse and the “Body weight (g/mouse) (mean) 0 h” value ([1]; 125 mg/kg, vehicle 39.4 ± 0.4, Table 11) was 39.6 ± 0.3 g/mouse. For the same molecule, the “Body weight (g/mouse) (mean) 0 h” value [1, 7] was 39.5 ± 0.5 g/mouse, the “Body weight (g/mouse) (mean) 48 hr” value [1, 8] was 39.7 ± 0.6 g/mouse and the “Body weight (g/mouse) (mean) 48 hr” value ([1]; 125 mg/kg, vehicle 40.1 ± 0.4, Table 11) was 40.2 ± 0.4 g/mouse. The “adverse effect” value ([1]; 125 mg/kg, Tables 9 and 11) was “absence of any significantly adverse effect”, the “Change in Glucose (mg/dL) 6 H” value [2, 9] was -2.1 mg/dL and the “Change in Glucose (mg/dL) 6 H” value ([2]; 125 mg/kg q.d. oral at 0, 24, 48 h, vehicle 20.0, Table 10) was -53.8 mg/dL. For the same molecule, the “Change in Glucose (mg/dL) 30 H” value ([2]; 125 mg/kg q.d. oral at 0, 24, 48 h, 30 h after initial dose, vehicle 0.1, Table 10) was -109.9 mg/dL, the “Change in Glucose (mg/dL) 30 H” value [2, 10] was -47.0 mg/dL and the “Change in Glucose (mg/dL) 54 H” value [2, 11] was -54.7 mg/dL. The “Change in Glucose (mg/dL) 54 H” value ([2]; 125 mg/kg q.d. oral at 0, 24, 48 h, vehicle −20.2, Table 10) was -86.6 mg/dL, the “mean glucose levels declined from baseline values” ([2]; Table 8, 125 mg/kg, fifty-four hours after initial dosing, value = size of decline) was 54.7 mg/dL and the “mean glucose levels declined from the baseline value” [2, 12] was 47.0 mg/dL. The “mean glucose levels declined from baseline values” ([2]; Table 10, 125 mg/kg, fifty-four hours after initial dosing, value = size of decline) was 86.6 mg/dL, the “mean glucose levels declined from the baseline value” ([2]; Table 10, 125 mg/kg, six hours after initial dosing, value = size of decline) was 53.8 mg/dL and the “mean glucose levels declined from the baseline value” ([2]; Table 10, 125 mg/kg, thirty hours after initial dosing, value = size of decline) was 109.9 mg/dL. The “reduction in plasma glucose relative to vehicle (control) (in words)” value [2, 13] was “statistically significant reduction”.

In the case of `COc1cc(O)cc(CCc2ccccc2)c1` [Compound G], the “Food Intake (g/mouse) 0-48 h” value [1, 6] is reported as 5.9 g/mouse, the “Body weight (g/mouse) (mean) 0 h” value [1, 7] is reported as 39.0 ± 1.1 g/mouse and the “Body weight (g/mouse) (mean) 48 hr” value [1, 8] is reported as 39.0 ± 1.1 g/mouse. The “adverse effect” value ([1]; 125 mg/kg, Tables 9 and 11) was “absence of any significantly adverse effect”, the “Change in Glucose (mg/dL) 6 H” value [2, 9] was 35.0 mg/dL and the “Change in Glucose (mg/dL) 30 H” value [2, 10] was -12.2 mg/dL. The “Change in Glucose (mg/dL) 54 H” value [2, 11] was 12.0 mg/dL, the “mean glucose levels rose from the baseline values” ([2]; Table 8, 125 mg/kg, fifty-four hours after initial dosing, value = size of rise) was 12.0 mg/dL and the “mean glucose levels declined from the baseline value” [2, 12] was 74.6 mg/dL. The “reduction in plasma glucose relative to vehicle (control) (in words)” value [2, 13] was “statistically significant reduction”.
